Data published in patent US20260335279A1, “METHODS OF TREATING ISCHEMIA-REPERFUSION INJURIES” (University of Cincinnati, priority 2022, published 2026).

Key:
[1] = system: KLF5; assay: KLF5 suppression, mRNA (quantitative real-time PCR) in cardiac tissue, I/R mice; format: in vivo, mouse (C57BL/6)
Experimental: (§1) The myocardial ischemia/reperfusion surgical protocol was applied as follows. Mice were anesthetized with 2% isoflurane inhalation until anesthesia was achieved. The animals' body temperature was maintained at 37 °C throughout the surgical procedure using a heating pad. A tracheal tube was placed via tracheal intubation and the respiration rate was set at 150 strokes/min with a tidal volume of 200 μL, using Minivent ventilator for mice (Model 845, Harvard Apparatus). A 1.2 cm incision was made over the left chest. After retraction of the pectoral major and minor muscles, the fourth intercostal space was exposed. […] The mouse was then monitored during the recovery period, which was generally completed within 3 to 5 minutes. […]
(§2) Total RNA was purified from heart tissue using the TRIzol reagent according to the instructions of the manufacturer (ThermoFischer Scientific, Cat. No.: 15596018). cDNA synthesis was performed using the Applied Biosystems High Capacity cDNA Reverse Transcription Kit (ThermoFischer Scientific, Cat. No.: 4368814) from 500 ng RNA, which had been treated with DNAase I (ThermoFischer Scientific, Cat. No.: 18068015). Quantitative real-time PCR was performed with the SYBR Select Master Mix (ThermoFischer Scientific, Cat. No.: 4472903) using the manufacturer's recommendations. […]

[2] = system: cardiac fibrosis in mice; assay: Masson's Trichrome staining, cardiac fibrosis in chronic model of I/R injury; format: in vivo, mouse (C57BL/6); conditions: 30 min ischemia, 4 weeks reperfusion; two doses of ML264 at early reperfusion
Experimental: (§3) The myocardial ischemia/reperfusion surgical protocol was applied as follows. Mice were anesthetized with 2% isoflurane inhalation until anesthesia was achieved. The animals' body temperature was maintained at 37 °C throughout the surgical procedure using a heating pad. A tracheal tube was placed via tracheal intubation and the respiration rate was set at 150 strokes/min with a tidal volume of 200 μL, using Minivent ventilator for mice (Model 845, Harvard Apparatus). A 1.2 cm incision was made over the left chest. After retraction of the pectoral major and minor muscles, the fourth intercostal space was exposed. […] The left anterior descending coronary artery (LAD) was then located, sutured, and ligated at a site 3-4 mm distal to the origin of the artery under the left atrium using a 6-0 silk suture. The heart was allowed to stabilize for 15 min and right after, ischemia was induced by tightening the suture against a small piece of polyethylene tube. […] The mouse was then monitored during the recovery period, which was generally completed within 3 to 5 minutes. […]
Tissue sectioning and Masson's Trichrome staining were performed. […] Fibrotic myocardial tissue size was measured as % area with respect to the total slice area in mouse hearts imaged at 0.8×. […]

[3] = system: Col1a1; assay: Col1a1 mRNA in chronic model of I/R injury (real-time PCR); format: in vivo, mouse (C57BL/6); conditions: 4 weeks post-I/R; vs IR group treated with vehicle
Experimental: as §1, §2

[4] = system: Col3a1; assay: Col3a1 mRNA in chronic model of I/R injury (real-time PCR); format: in vivo, mouse (C57BL/6); conditions: 4 weeks post-I/R; vs IR group treated with vehicle
Experimental: as §1, §2

[5] = system: reactive oxygen species in myocardium; assay: DHE staining of myocardium (superoxide detection, oxidative stress) after I/R; format: in vivo, mouse (C57BL/6); conditions: 30 min ischemia, 2 h reperfusion; ML264 5 min prior to reopening of coronary artery; vs I/R vehicle
Experimental: The myocardial ischemia/reperfusion surgical protocol was applied as follows. Mice were anesthetized with 2% isoflurane inhalation until anesthesia was achieved. The animals' body temperature was maintained at 37 °C throughout the surgical procedure using a heating pad. A tracheal tube was placed via tracheal intubation and the respiration rate was set at 150 strokes/min with a tidal volume of 200 μL, using Minivent ventilator for mice (Model 845, Harvard Apparatus). A 1.2 cm incision was made over the left chest. After retraction of the pectoral major and minor muscles, the fourth intercostal space was exposed. […] The left anterior descending coronary artery (LAD) was then located, sutured, and ligated at a site 3-4 mm distal to the origin of the artery under the left atrium using a 6-0 silk suture. The heart was allowed to stabilize for 15 min and right after, ischemia was induced by tightening the suture against a small piece of polyethylene tube. At the end of the 30-minute ischemia period, the ligature was released for the induction of reperfusion, and then the manual evacuation of air and closure of muscle and skin were performed. The mouse was then monitored during the recovery period, which was generally completed within 3 to 5 minutes. […]
Live myocardium was isolated from mice at the time of euthanasia and stained with 20 μM dihydroethidium (DHE) for 30 min at room temperature. […] Individual nuclei were measured within each visual field using ImageJ software, and visual fields were averaged to measure mean fluorescence intensity for each mouse.
In order to unravel the mechanisms of KLF5-mediated cardiotoxicity, oxidative stress levels were evaluated at early reperfusion. […] Given the fact that inflammation and diapedesis of immune cells are important hallmarks of the post-ischemia-reperfusion response, the mRNA levels of IL-1α, IL-1β, IL-6, IL-10, and TNFα in the ischemic myocardium upon ML264 treatment were evaluated at 2 hours of reperfusion (FIGS. 51-5M) and 24 hours of reperfusion (FIGS. 5N-5Q). […]

[6] = system: NOX4; assay: NOX4 mRNA in myocardium after I/R (real-time PCR); format: in vivo, mouse (C57BL/6); conditions: ML264 treatment; 30 min ischemia, 2 h reperfusion
Experimental: as §1, §2

[7] = system: NOX4; assay: NOX4 protein in myocardium after I/R (Western blot); format: in vivo, mouse (C57BL/6); conditions: ML264 treatment, 30 min ischemia, 2 h reperfusion
Experimental: as §3, with “suture.” for “suture. The heart was allowed to stabilize for 15 min and right after, ischemia was induced by tightening the suture against a small piece of polyethylene tube.”
Isolated myocardial tissue/isolated primary murine cardiomyocytes were homogenized in radioimmunoprecipitation assay buffer (RIPA buffer) containing protease and phosphatase inhibitors (Thermo Fischer Scientific, Cat. No.: A32959). […] Relative densitometry was determined, and the β-actin protein was used as a loading control.
In order to unravel the mechanisms of KLF5-mediated cardiotoxicity, oxidative stress levels were evaluated at early reperfusion. […]

[8] = system: Ugdh; assay: Ugdh levels after I/R; format: in vivo, mouse; conditions: among the three groups, ML-264 treatment
Experimental: as §1, §2

CN(C(=O)CNC(=O)/C=C/c1cccc(Cl)c1)C1CCS(=O)(=O)CC1 [ML264]
KLF5 mRNA levels (4 weeks) ([1]; 4 weeks post-ischemia-reperfusion, among the four groups): unchanged
KLF5 mRNA expression level in cardiac tissue ([1]; 30 minutes of ischemia, ML264 25 mg/kg/12 h intraperitoneal): suppression was confirmed
fibrotic scar tissue formation [2]: significant reduction
mRNA levels of Col1a1 [3]: decreased
mRNA levels of Col3a1 [4]: decreased
reactive oxygen species formation (DHE staining) [5]: significant reduction
NOX4 mRNA levels [6]: suppressed
NOX4 protein levels [7]: suppressed
NOX4 levels ([7]; FIG. 5C-5E (mRNA and protein)): significant suppression
Ugdh levels [8]: no effect
